Data as given in US8426429B2, “2-amino-quinazoline derivatives useful as inhibitors of β-secretase (BACE)” (Jansssen Pharmaceutica N.V., priority 2004, dated 2013).

Legend:
β-secretase (BACE) [1] = molecular target: T1, β-secretase (BACE) (Homo sapiens, UniProt P56817); assay: BACE % Inhibition Assay ((Aedens)-[…]-(Dabcyl K-amide) substrate); format: biochemical; details: % error ±10%
T1 construct: purchased Panvera
Procedure: The substrate stock solution was prepared in DMSO as a 10 mg/mL solution. The substrate working solution was prepared by diluting the 10 mg/mL stock solution with substrate assay buffer to a final concentration of […]. The β-secretase (BACE) working solution was prepared by diluting a 0.83 mg/mL BACE stock solution with enzyme assay buffer to a final concentration of 4 μg/mL.
Test compounds were dissolved in DMSO to 10 mM.
The screening procedure for this assay was as follows: 15 μL of BACE working solution was pipetted into each well of a 96-well plate. To each well was then pipetted 2 μL of test compound at the selected concentration. Test compound and BACE were then mixed with a pipettor and incubated for 20 min at room temperature. To each well was then added 10 μL of the substrate working solution. The plates were then incubated for 1 hour at room temperature.
The procedure for the blank was as follows. 15 μL of assay buffer was pipetted into each well to be used as a blank control. To each well was then added 2 μL of vehicle and 10 μL of substrate working solution. The plates were then incubated for 1 hour at room temperature.
The procedure for the positive control was as follows: 15 μl of BACE working solution was pipetted into each well to be used as a positive control. To each well was then pipetted 2 μL of vehicle. Vehicle and BACE were then mixed with a pipettor and incubated for 20 min at room temperature. To each well was then added 10 μL of the substrate working solution. The plates were the incubated for 1 hour at room temperature.
For test compounds, % inhibition was determined at each concentration as follows: […]

β-secretase (BACE) [2] = molecular target: T1, β-secretase (BACE); assay: BACE FS1 % Inhibition Assay; format: biochemical
Summary of the method: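 Percent inhibition per compound concentration was referenced to vehicle-treated enzyme and no-enzyme wells. Enzyme at a 4 μg/mL working stock plus compound was mixed for 20 min at room temperature before the FS1 substrate (300 μg/mL working stock) was added for a 1 h room-temperature reaction.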

T1 sequence (P56817 46-501): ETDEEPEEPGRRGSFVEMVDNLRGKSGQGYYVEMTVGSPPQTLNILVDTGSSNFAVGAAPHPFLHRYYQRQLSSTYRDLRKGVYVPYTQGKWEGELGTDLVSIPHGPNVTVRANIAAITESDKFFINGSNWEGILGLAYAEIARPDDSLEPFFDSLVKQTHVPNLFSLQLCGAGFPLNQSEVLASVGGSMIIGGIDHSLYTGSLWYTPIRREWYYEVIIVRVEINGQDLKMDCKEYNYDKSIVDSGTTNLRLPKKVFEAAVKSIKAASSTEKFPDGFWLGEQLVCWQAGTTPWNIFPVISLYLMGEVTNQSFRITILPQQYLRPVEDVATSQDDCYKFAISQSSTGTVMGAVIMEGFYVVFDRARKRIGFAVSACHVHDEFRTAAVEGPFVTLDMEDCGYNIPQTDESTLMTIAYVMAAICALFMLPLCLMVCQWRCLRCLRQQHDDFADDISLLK

Structure (SMILES)	% Inhibition (FS) (β-secretase (BACE) [2]; 0.3 μM test compound) [%]	% Inhibition (FS) (β-secretase (BACE) [2]; 1 μM test compound) [%]	% Inhibition (FS) (β-secretase (BACE) [2]; 3 μM test compound) [%]	also measured
CN(C(=O)c1cc(CN2Cc3cc(Oc4ccccc4)ccc3N=C2N)ccn1)C1CCCCC1 [Compound 89]	–	–	–	% Inhibition (β-secretase (BACE) [1]; 3 μM compound): 77%; % Inhibition (β-secretase (BACE) [1]; 10 μM compound): 81%
CN(C(=O)c1cccc(N2Cc3cc(Oc4ccccc4)ccc3N=C2N)c1)C1CCCCC1 [Compound 94]	–	–	–	% Inhibition (β-secretase (BACE) [1]; 3 μM compound): <30%; % Inhibition (β-secretase (BACE) [1]; 10 μM compound): <30%
CN(C(=O)CCC(C1CCCCC1)N1Cc2cc(Oc3ccccc3)ccc2N=C1N)C1CCC(C(=O)OCc2ccccc2)CC1 (stereo not shown) [Compound 760]	–	–	–	% Inhibition (FS) (β-secretase (BACE) [2]; 0.3 μM compound, FS1 substrate): <30%; % Inhibition (FS) (β-secretase (BACE) [2]; 1 μM compound, FS1 substrate): 44%; % Inhibition (FS) (β-secretase (BACE) [2]; 3 μM compound, FS1 substrate): 89%
CN(C(=O)c1cccc(C(CC2CCCCC2)N2Cc3cc(Oc4ccccc4)ccc3N=C2N)c1)C1CCCCC1 (stereo not shown) [Compound 310]	<30	<30	57	–
NC1=Nc2ccc(-c3ccccc3Cl)cc2CN1CCNC(=O)C1CCOCC1 [Compound 689]	–	–	–	% Inhibition (FS) (β-secretase (BACE) [2]; 0.3 μM compound, FS1 substrate): 33%; % Inhibition (FS) (β-secretase (BACE) [2]; 1 μM compound, FS1 substrate): 82%
COc1ccc(-c2ccc3c(c2)CN(C(CCC(=O)N(C)C2CCCCC2)C2CCCCC2)C(N)=N3)cc1 (stereo not shown) [Compound 226]	<30	<30	54	–
Cc1ccccc1-c1ccc2c(c1)CN(CCNC(=O)C1CCC(C(F)(F)F)CC1)C(N)=N2 (stereo not shown) [Compound 694]	–	–	–	% Inhibition (FS) (β-secretase (BACE) [2]; 0.3 μM compound, FS1 substrate): <30%; % Inhibition (FS) (β-secretase (BACE) [2]; 1 μM compound, FS1 substrate): <30%; % Inhibition (FS) (β-secretase (BACE) [2]; 3 μM compound, FS1 substrate): 84%
NC1=Nc2ccc(Oc3ccccc3)cc2CN1CCCNC(=O)C1CC1 [Compound 143]	–	–	<30	% Inhibition (FS) (β-secretase (BACE) [2]; 10 μM test compound): 32%
CCOC(=O)C1CCC(N(C)C(=O)CCC(C2CCCCC2)N2Cc3cc(Oc4ccccc4)ccc3N=C2N)CC1 (stereo not shown) [Compound 737]	–	–	–	% Inhibition (FS) (β-secretase (BACE) [2]; 0.3 μM compound, FS1 substrate, 0.3 µM): 22%; % Inhibition (FS) (β-secretase (BACE) [2]; 1 μM compound, FS1 substrate, 1 µM): 34%; % Inhibition (FS) (β-secretase (BACE) [2]; 3 μM compound, FS1 substrate, 3 µM): 97%
COc1ccc(Sc2ccc3c(c2)CN(Cc2cccc(C(=O)N(C)C4CCCCC4)c2)C(N)=N3)cc1 [Compound 410]	<30	39	50	–
CSc1ccc(Sc2ccc3c(c2)CN(Cc2cccc(C(=O)N(C)C4CCCCC4)c2)C(N)=N3)cc1 [Compound 413]	<30	<30	53	–
CNC(=O)c1ccccc1Sc1ccc2c(c1)CN(Cc1cccc(C(=O)N(C)C3CCCCC3)c1)C(N)=N2 [Compound 416]	<30	<30	−3	–
COc1cccc(F)c1-c1ccc2c(c1)CN(CCNC(=O)C1CCOCC1)C(N)=N2 [Compound 699]	–	–	–	% Inhibition (FS) (β-secretase (BACE) [2]; 0.3 μM compound, FS1 substrate): 31%; % Inhibition (FS) (β-secretase (BACE) [2]; 1 μM compound, FS1 substrate): 64%; % Inhibition (FS) (β-secretase (BACE) [2]; 3 μM compound, FS1 substrate): 93%
Cc1cccc(Sc2ccc3c(c2)CN(Cc2cccc(C(=O)N(C)C4CCCCC4)c2)C(N)=N3)c1 [Compound 405]	43	106	118	–
CN(C(=O)c1cccc(CN2Cc3cc(-c4ccncc4)ccc3N=C2N)c1)C1CCCCC1 [Compound 168]	<30	<30	<30	–
NC1=Nc2ccc(Oc3ccccc3)cc2CN1C(CC(=O)NC1C2CC3CC(C2)CC1C3)C1CCCCC1 (stereo not shown) [Compound 314]	<30	45	85	–
CN(C(=O)c1cccc(CN2Cc3cc(Sc4ccc5ccccc5c4)ccc3N=C2N)c1)C1CCCCC1 [Compound 415]	<30	<30	63	–
CC(C)(C)c1ccc(C(=O)NCCN2Cc3cc(Oc4ccccc4)ccc3N=C2N)cc1 [Compound 156]	–	–	<30	% Inhibition (FS) (β-secretase (BACE) [2]; 10 μM test compound): 40%
NC1=Nc2ccc(-c3ccccc3Cl)cc2CN1CCNC(=O)CCC(F)(F)F [Compound 682]	–	–	–	% Inhibition (FS) (β-secretase (BACE) [2]; 0.3 μM compound, FS1 substrate): 39%; % Inhibition (FS) (β-secretase (BACE) [2]; 1 μM compound, FS1 substrate): 77%; % Inhibition (FS) (β-secretase (BACE) [2]; 3 μM compound, FS1 substrate): 97%
COc1ccccc1-c1ccc2c(c1)CN(CCNC(=O)C1CCOCC1)C(N)=N2 [Compound 697]	–	–	–	% Inhibition (FS) (β-secretase (BACE) [2]; 0.3 μM compound, FS1 substrate): <30%; % Inhibition (FS) (β-secretase (BACE) [2]; 1 μM compound, FS1 substrate): <30%; % Inhibition (FS) (β-secretase (BACE) [2]; 3 μM compound, FS1 substrate): 63%
NC1=Nc2ccc(Oc3ccccc3)cc2CN1C1CCN(C(=O)C2CCCC2)C1 (stereo not shown) [Compound 120]	–	–	<30	% Inhibition (FS) (β-secretase (BACE) [2]; 10 μM test compound): 34%
NC1=Nc2ccc(Oc3ccccc3)cc2CN1C(CC(=O)NC1CCCCC1)c1ccccc1 (stereo not shown) [Compound 299]	<30	<30	<30	–
COc1ccc(Nc2ccc3c(c2)CN(Cc2cccc(C(=O)N(C)C4CCCCC4)c2)C(N)=N3)cc1 [Compound 434]	<30	<30	<30	–
NC1=Nc2ccc(Oc3ccccc3)cc2CN1CCCNC1CCCCC1 [Compound 403]	<30	<30	66	–
CC(C)CCC(=O)NCCN1Cc2cc(-c3cnc4ccccc4c3)ccc2N=C1N [Compound 675]	–	–	–	% Inhibition (FS) (β-secretase (BACE) [2]; 0.3 μM compound, FS1 substrate): 35%; % Inhibition (FS) (β-secretase (BACE) [2]; 1 μM compound, FS1 substrate): <30%; % Inhibition (FS) (β-secretase (BACE) [2]; 3 μM compound, FS1 substrate): <30%
CCCC(CCCC(=O)N(C)C1CCN(C)CC1)N1Cc2cc(Oc3ccccc3)ccc2N=C1N (stereo not shown) [Compound 106]	–	–	103	% Inhibition (FS) (β-secretase (BACE) [2]; 10 μM test compound): 114%
CN(CCc1ccccc1)C(=O)CC[C@@H](C1CCCCC1)N1Cc2cc(-c3ccccc3F)ccc2N=C1N [Compound 727]	–	–	–	% Inhibition (FS) (β-secretase (BACE) [2]; 0.3 μM compound, FS1 substrate): 46%; % Inhibition (FS) (β-secretase (BACE) [2]; 1 μM compound, FS1 substrate): 80%

Second part, led by results:

% Inhibition (FS) (β-secretase (BACE) [2]; 0.3 μM test compound) [%]	% Inhibition (FS) (β-secretase (BACE) [2]; 1 μM test compound) [%]	% Inhibition (FS) (β-secretase (BACE) [2]; 3 μM test compound) [%]	Structure (SMILES)	also measured
<30	<30	<30	CC(=O)Nc1ccc(C(=O)NCCN2Cc3cc(-c4cccc(C(F)(F)F)c4)ccc3N=C2N)cc1 [Compound 594]	–
<30	<30	32	C=CCc1cccc(OC)c1Oc1ccc2c(c1)CN(Cc1cccc(C(=O)N(C)C3CCCCC3)c1)C(N)=N2 [Compound 481]	–
46	82	101	CC(C)(C)C(=O)NCCN1Cc2cc(-c3ccccc3Cl)ccc2N=C1N [Compound 653]	–
<30	<30	<30	CN(C(=O)c1ncoc1C(Cc1ccccc1)N1Cc2cc(Oc3ccccc3)ccc2N=C1N)C1CCCCC1 (stereo not shown) [Compound 559]	–
<30	<30	<30	NC1=Nc2ccc(Oc3ccccc3)cc2CN1Cc1ocnc1C(=O)NC1CCCCC1 [Compound 640]	–
<30	<30	<30	CSc1ccccc1Oc1ccc2c(c1)CN(Cc1cccc(C(=O)N(C)C3CCCCC3)c1)C(N)=N2 [Compound 474]	–
112	119	129	CC(C)CCC(=O)NC[C@@H](C(C)C)N1Cc2cc(Oc3ccccc3)ccc2N=C1N [Compound 564]	–
<30	<30	51	NC1=Nc2ccc(Oc3ccccc3)cc2CN1CC1CCN(C(=O)C23CC4CC(CC(C4)C2)C3)CC1 [Compound 527]	–
<30	42	78	NC1=Nc2ccc(Oc3ccccc3)cc2CN1C(CCCC(=O)N1CCCCC1)CCC(=O)N1CCCCC1 (stereo not shown) [Compound 452]	–
<30	<30	66	NC1=Nc2ccc(Oc3c(F)cccc3F)cc2CN1CCC(=O)NC1C2CC3CC(C2)CC1C3 (stereo not shown) [Compound 529]	–
52	72	97	CC(C)(C)C(=O)NCCN1Cc2cc(-c3ccccc3F)ccc2N=C1N [Compound 646]	–
<30	35	72	CCOc1cccc(Nc2ccc3c(c2)CN(Cc2cccc(C(=O)N(C)C4CCCCC4)c2)C(N)=N3)c1 [Compound 440]	–
<30	<30	<30	CCCC=Cc1ccc2c(c1)CN(CCNC(=O)C(C)(C)C)C(N)=N2 [Compound 574]	–
45	79	104	CCCCC(CC)C(=O)NCCN1Cc2cc(-c3ccccc3Cl)ccc2N=C1N (stereo not shown) [Compound 655]	–
46	72	104	NC1=Nc2ccc(-c3ccccc3F)cc2CN1CCNC(=O)C12CC3CC(CC(C3)C1)C2 [Compound 644]	–
<30	<30	<30	NC1=Nc2ccc(Oc3ccccc3)cc2CN1C1CCCCN(C(=O)C2CCCCC2)C1 (stereo not shown) [Compound 551]	–
